Data taken from paper PMC12340973, “Discovery of First-in-Class Inhibitors Targeting a Pathogen-Associated Aminoglycoside-Resistance 16S rRNA Methyltransferase” (ACS Infectious Diseases, 2025).

What was measured:
Format in all cases: biochemical
[1] = biological target: T1, NpmA (16S rRNA (m1A1408) methyltransferase) (Escherichia coli, UniProt A8C927); assay: in vitro […] subunit [3H]-SAM methylation assay at fixed […]; details: read-out: % activity at 1 mM
T1 construct: recombinant NpmA

[2] = biological target: T1, NpmA (16S rRNA (m1A1408) methyltransferase); assay: in vitro […] subunit [3H]-SAM methylation filter-binding assay, dose-response; resynthesized and retested
[3] = biological target: T1, NpmA (16S rRNA (m1A1408) methyltransferase); assay: in vitro […] subunit [3H]-SAM methylation filter-binding assay, dose-response

T1 sequence (A8C927 whole entry): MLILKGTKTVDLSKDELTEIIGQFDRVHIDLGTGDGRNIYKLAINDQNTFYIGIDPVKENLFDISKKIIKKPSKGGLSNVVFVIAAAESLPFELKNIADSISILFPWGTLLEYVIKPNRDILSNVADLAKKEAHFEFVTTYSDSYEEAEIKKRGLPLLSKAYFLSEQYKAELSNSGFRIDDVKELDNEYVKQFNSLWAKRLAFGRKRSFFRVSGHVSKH

| Structure (SMILES) | activity at 1000 µM [1] | IC50 [3] | also measured |
| --- | --- | --- | --- |
| CC(=O)c1ccc(NC(=O)/C(=C/c2cccc([N+](=O)[O-])c2)NC(=O)c2ccc(C)cc2)cc1 [compound 3] | < 25% |  |  |
| Cc1ccc(-c2cc(C(=O)N3CCC(c4cc(O)ncn4)CC3)[nH]n2)cc1 [compound 10] | < 25% |  |  |
| COc1cc(C2C(C(=O)OCCc3ccccc3)=C(C)NC3=C2C(=O)CC(c2ccccc2)C3)cc(Br)c1O (stereo not drawn) [compound 20] | < 25% |  |  |
| CC(=O)c1ccc(NC(=O)/C(=C/c2cccc([N+](=O)[O-])c2)NC(=O)c2ccccc2Cl)cc1 [compound 23, (Z)-N-(3-((4-Acetylphenyl)-amino)-1-(3-nitrophenyl)-3-oxoprop-1-en-2-yl)-2-chlorobenz-amide] |  |  | IC50 [2]: 76 µM |
| Cc1ccc(NC(=O)C(=Cc2cccc([N+](=O)[O-])c2)NC(=O)c2ccccc2I)cc1 [compound 45] |  | 99 µM |  |
| Cc1ccc(NC(=O)C(=Cc2cccc([N+](=O)[O-])c2)NC(=O)c2ccc(Cl)cc2Cl)cc1 [compound 47] |  | 68 µM |  |
